Data on two compounds can be found in patent publication US11465998B2, “Therapeutic compounds and methods of use thereof” (Regents of the University of Minnesota, priority 2019, dated 2022).

In general, EC50 refers to the concentration that produces a half-maximal response.

For one assay, the target named is T1, human NOD2 (Homo sapiens, UniProt Q9HC29).
T1 construct: host or cells: HEK293
In words: human NOD2 specific reporter gene assay (NF-κB induction). Format: cell-based. On the procedure:
(§1) Example 5: High-throughput screens in porcine blood: Curated compound collections were obtained from the Institute for Therapeutics Discovery & Development at the University of Minnesota. Compound transfers from source (80 nL of 10 mM stocks) to assay plates were performed using an Echo 550 acoustic liquid handler (Labcyte, Sunnyvale, Calif.). For most libraries, a target final concentration of 10 μM of compound (in a final volume of 80 μL for the assay described below) was achieved. Compound plates were hermetically sealed and stored at −80° C. until used. Fresh, heparin-anticoagulated porcine blood from healthy animals were obtained under USDA supervision from Midwest Research Swine, LLC (Glencoe, Minn.). 80 μL of hematocrit-enriched porcine blood (low-speed centrifugation, followed by resuspension in DMEM supplemented with 10% fetal bovine serum) was added to compound plates and incubated for 15 h. The following day, the plates were briefly centrifuged (100 g, 10 min), and supernatants were transferred using an automated ViaFlow 384 transfer device (Integra Biosciences Corp., Hudson, N.H.) to assay plates containing of 10^6 cells/mL of each of the following NF-κB/secreted alkaline phosphatase reporter cells suspended in HEK-Blue Detection Media: human IFN-α/β, human IFN-γ, human TNF-α/IL-1β (InvivoGen, San Diego, Calif.). NF-κB translocation was assayed spectrophotometrically using an alkaline phosphatase-specific chromogen (present in HEK-detection medium as supplied by InvivoGen) at 620 nm using a SpectraMax M4 multimode microplate reader (Molecular Devices, Sunnyvale, Calif.). Z′ factors were computed for each TLR/NOD-specific signals. Hits were defined as signals >4σ (in-plate standard deviations for test compounds above negative control means), were deconvoluted in full dose-response assays in human TLR-2/-3/-4/-5/-7/-8/-9 and NOD-1/NOD-2-specific reporter cells in liquid handler-assisted assay formats as described previously. Example 6: Murine knockout cell-lines: The following reagents were obtained through BEI Resources, NIAID, NIH: the microglial cell line derived from MAL/MyD88 double knockout Mice (NR-9904), and the macrophage cell line derived from TRIF/TRAM knockout mice (NR-9568). Example 7: Human NOD1/2-specific reporter gene assays (NF-κB induction), and TLR-2/-3/-4/-5/-7/-8/-9/STING/ISG counter-screens: The induction of NF-κB was quantified using human TLR-2/-3/-4/-5/-7/-8/-9/NOD-1/NOD-2/STING/ISG-specific, rapid-throughput, liquid handler-assisted reporter gene assays as previously described by us (Wu, W. et al. J. Med. Chem. 2010, 53, 3198-3213; Shukla, N. M. et al. J. Med. Chem. 2010, 53, 4450-4465; Agnihotri, G. et al. J. Med. Chem. 2011, 54, 1490-1510 and Ukani, R. et al. Bioorg. Med. Chem. Lett. 2012, 22, 293-295). HEK293 cells stably co-transfected with the appropriate hTLR and secreted alkaline phosphatase (sAP) were maintained in HEK-Blue™ Selection medium. Stable expression of secreted alkaline phosphatase (sAP) under control of NF-κB/AP-1/IRF promoters is inducible by appropriate innate immune stimuli, and extracellular sAP in the supernatant is proportional to NF-κB/IRF induction. Reporter cells were incubated at a density of ˜10^5 cells/ml in a volume of 80 μl/well, in 384-well, flat-bottomed, cell culture-treated microtiter plates in the presence of graded concentrations of stimuli. sAP was assayed spectrophotometrically using an alkaline phosphatase-specific chromogen (present in HEK-detection medium as supplied by InvivoGen) at 620 nm. Example 8: Multiplexed immunoassays for human cytokines: Fresh human peripheral blood mononuclear cells (hPBMC) were isolated from human blood obtained by venipuncture in Cell Preparation Tubes (CPT, Beckton-Dickinson) with informed consent and as per guidelines approved by the University of Minnesota Human Subjects Experimentation Committee. Aliquots of PBMCs or THP-1 cells (10^5 cells in 100 μL/well) were stimulated for 16 h with graded concentrations of test compounds. […]
In general terms: Reporter assays use an easily measured gene product as a stand-in for the process of interest.

Assay [1] deals with human peripheral blood mononuclear cells (PBMCs). Put plainly: Multiplexed immunoassays for human cytokines in PBMCs. The format is cell-based. On the procedure:
as §1, with “293-295).” for “293-295). HEK293 cells stably co-transfected with the appropriate hTLR and secreted alkaline phosphatase (sAP) were maintained in HEK-Blue™ Selection medium. Stable expression of secreted alkaline phosphatase (sAP) under control of NF-κB/AP-1/IRF promoters is inducible by appropriate innate immune stimuli, and extracellular sAP in the supernatant is proportional to NF-κB/IRF induction. Reporter cells were incubated at a density of ˜10^5 cells/ml in a volume of 80 μl/well, in 384-well, flat-bottomed, cell culture-treated microtiter plates in the presence of graded concentrations of stimuli. sAP was assayed spectrophotometrically using an alkaline phosphatase-specific chromogen (present in HEK-detection medium as supplied by InvivoGen) at 620 nm. Example 8: Multiplexed immunoassays for human cytokines: Fresh human peripheral blood mononuclear cells (hPBMC) were isolated from human blood obtained by venipuncture in Cell Preparation Tubes (CPT, Beckton-Dickinson) with informed consent and as per guidelines approved by the University of Minnesota Human Subjects Experimentation Committee. Aliquots of PBMCs or THP-1 cells (10^5 cells in 100 μL/well) were stimulated for 16 h with graded concentrations of test compounds.”

The mark [2] stands for this setting: human NOD2 reporter gene assay, read-out: EC50 values, human NOD2 agonistic potency.
[3] abbreviates: human NOD2 specific reporter gene assay, arithmetic mean of quadruplicate samples, NA* indicates inactive under the tested conditions, read-out: hNOD2 Agonistic Activity (μM), EC50.

Each structure is given as a SMILES string. “Also recorded” adds a separate entry of the source. Like-named read-outs stand apart in the source and are kept apart here.

T1 sequence (Q9HC29 whole entry): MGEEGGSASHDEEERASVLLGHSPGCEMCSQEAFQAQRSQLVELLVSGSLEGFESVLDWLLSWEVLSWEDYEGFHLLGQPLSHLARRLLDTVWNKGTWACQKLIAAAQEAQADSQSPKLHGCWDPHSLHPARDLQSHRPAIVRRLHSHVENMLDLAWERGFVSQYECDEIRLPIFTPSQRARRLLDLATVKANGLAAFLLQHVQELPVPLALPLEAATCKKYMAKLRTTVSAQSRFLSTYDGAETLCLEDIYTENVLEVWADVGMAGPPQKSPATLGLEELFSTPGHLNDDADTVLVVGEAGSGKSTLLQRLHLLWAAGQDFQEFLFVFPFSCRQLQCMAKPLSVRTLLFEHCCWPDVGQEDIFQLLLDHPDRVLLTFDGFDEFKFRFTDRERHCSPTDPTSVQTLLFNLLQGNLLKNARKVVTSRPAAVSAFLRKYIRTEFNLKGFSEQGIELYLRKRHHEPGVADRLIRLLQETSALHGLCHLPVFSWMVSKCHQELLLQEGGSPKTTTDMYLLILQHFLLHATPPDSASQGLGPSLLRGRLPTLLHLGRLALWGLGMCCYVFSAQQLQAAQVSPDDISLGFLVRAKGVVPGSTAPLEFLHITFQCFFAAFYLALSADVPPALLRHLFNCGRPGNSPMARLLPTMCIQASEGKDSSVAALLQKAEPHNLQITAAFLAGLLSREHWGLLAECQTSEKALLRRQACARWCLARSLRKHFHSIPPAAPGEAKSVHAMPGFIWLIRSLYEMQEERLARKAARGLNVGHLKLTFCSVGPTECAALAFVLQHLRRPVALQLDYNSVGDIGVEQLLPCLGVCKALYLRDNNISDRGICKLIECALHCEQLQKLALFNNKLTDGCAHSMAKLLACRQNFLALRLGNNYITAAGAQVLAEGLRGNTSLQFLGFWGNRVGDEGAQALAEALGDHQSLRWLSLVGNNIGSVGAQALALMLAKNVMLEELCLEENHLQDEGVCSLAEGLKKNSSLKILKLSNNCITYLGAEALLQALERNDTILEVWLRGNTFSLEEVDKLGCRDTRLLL

Consider `CCCCCc1nc2ccccc2n1-c1csc(C(N)=O)c1` [Compound 7e, 4-(2-Pentyl-1H-benzo[d]imidazol-1-yl)thiophene-2-carboxamide], for which the EC50 is 0.68 µM at human NOD2 (setting [2]) and 0.684 µM at human NOD2 (setting [3]). Also, the “induction of chemokines and cytokines” value in assay [1] is “None of the small molecules (including 1, as well as the optimized, equipotent analogues 7e and 7f) showed any activity; also recorded: absence of induction of chemokines and cytokines”.
In the case of `CCCCCCc1nc2ccccc2n1-c1csc(C(N)=O)c1` [Compound 7f, 4-(2-Hexyl-1H-benzo[d]imidazol-1-yl)thiophene-2-carboxamide], the results for the EC50 at human NOD2 (setting [2]) and on human NOD2 (setting [3]) were 0.66 µM and 0.664 µM, respectively. Further, the “induction of chemokines and cytokines” value in assay [1] was “None of the small molecules (including 1, as well as the optimized, equipotent analogues 7e and 7f) showed any activity; also recorded: essentially identical to that of 7e”.
